Counter-ions that a name gives are not always drawn.
How the values were obtained:
[1] = test system: neutrophils from mouse bone marrow; assay: Transwell chemotaxis of murine bone-marrow neutrophils; format: cell-based; conditions: 3-µM embelin, 2 h
Description: (§1) Bone marrow of the untreated WT mice at 8 weeks of age was used to isolate the immune cells for transwell migration assays. A single cell suspension was achieved by flushing cold RPMI-1640 through the bones, and grinding the received bone marrow through a 70-µm cell strainer. After lysis of red blood cells by Pharmlyse (BD Biosciences, San Jose, CA, USA), 1 × 10^6 cells in RPMI-1640 were placed in the upper compartment of the 5-µm transwell migration chamber. Migration was analyzed towards stimulation with a 3-µM embelin, a surrogate GPR84 agonist, or a 100-µM myristic acid (an MCFA) dissolved in combination with bovine serum albumin (BSA) in the lower compartment. The chemotactic cytokines, 5 nM CCL2 or 1 nM CXCL1, were used as positive controls for monocyte or neutrophil migration, respectively. After 2 h of incubation at 37 °C, the cells in the lower compartment were analyzed by flow cytometry.

[2] = test system: CD115+ monocytes from mouse bone marrow; assay: Transwell chemotaxis of murine bone-marrow monocytes; format: cell-based; conditions: 3-µM embelin, 2 h
Description: as §1

human neutrophils = assay: Human neutrophil chemotaxis towards GPR84 agonists; format: cell-based; conditions: embelin 5 µM
mGPR84 = target: T1, mGPR84 (Mus musculus, UniProt Q8CIM5); assay: cAMP HTRF assay, CHO-K1-mGPR84 cell membrane; format: biochemical
T1 construct: expressed in transfected cells; host or cells: CHO-K1
T1 sequence (Q8CIM5 whole entry): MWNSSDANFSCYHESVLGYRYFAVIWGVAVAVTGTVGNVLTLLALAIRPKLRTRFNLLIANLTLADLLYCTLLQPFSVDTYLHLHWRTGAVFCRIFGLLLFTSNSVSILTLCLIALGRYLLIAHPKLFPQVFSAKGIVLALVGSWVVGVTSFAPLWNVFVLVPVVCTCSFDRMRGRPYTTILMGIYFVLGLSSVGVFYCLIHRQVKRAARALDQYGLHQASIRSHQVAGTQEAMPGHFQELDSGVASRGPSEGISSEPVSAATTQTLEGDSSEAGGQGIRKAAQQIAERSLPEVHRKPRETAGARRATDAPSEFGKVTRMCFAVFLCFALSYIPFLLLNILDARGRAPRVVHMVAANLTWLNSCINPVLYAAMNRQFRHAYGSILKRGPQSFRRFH

[3] = test system: lung fibrosis mouse models; parameters: method as in earlier work; conditions: two mouse models, therapeutic setting; cited from earlier work
[4] = test system: experimental kidney as well as liver fibrosis; parameters: method as in PMID 29454750, PMID 30093459; conditions: cited from earlier work
patients with NASH = test system: patients with NASH; parameters: method as in PMID 28833331, PMID 31943293; conditions: early data from a clinical trial in patients with NASH; cited from earlier work
[5] = test system: C57BL6/J wildtype mice, MCD diet; assay: MCD diet-induced steatohepatitis and fibrosis in mice; format: in vivo, mouse; conditions: MCD diet 8 weeks, treatment last 4 weeks; GPR84 antagonists 30 mg/kg PO q.d., selonsertib 15 mg/kg PO b.i.d.
[6] = test system: C57BL6/J wildtype mice, acute CCl4 liver injury; assay: CCl4-induced acute liver injury in mice; format: in vivo, mouse; conditions: 36 h after single IP CCl4
[7] = test system: C57BL6/J wildtype mice, chronic CCl4; assay: CCl4-induced chronic liver injury / fibrosis in mice; format: in vivo, mouse; conditions: CCl4 IP twice per week 8 weeks, treatment last 4 weeks; CpdA 30 mg/kg q.d., selonsertib 15 mg/kg b.i.d.
[8] = GPR84 antagonists 30 mg/kg PO, selonsertib 15 mg/kg PO

With CCCCCCCCCCCC1=C(O)C(=O)C=C(O)C1=O [embelin] the “attraction of mouse neutrophils by agonist” value [1] was “attracted”, the “stimulation of mouse monocyte migration by agonist” value [2] was “stimulated” and the “induction of human neutrophil migration by agonist” value (human neutrophils) was “strongly induced”.
For CCCCCCCCCC(=O)O [Capric acid], the “EC80 of agonist in cAMP HTRF assay” value (mGPR84) was “cAMP HTRF assay (IC50 nM) CHO-K1-mGPR84 cell membrane, Capric acid (EC80 = 61.7 µM)”.
For O=c1nc(OC[C@@H]2COCCO2)cc2n1CCc1cc(C#CC3CC3)ccc1-2 [GLPG1205], the lung fibrosis [3] is given as “reduced lung fibrosis”.
For CCCCCc1cccc(CC(=O)O)c1 [PBI-4050, 3-pentylbenzeneacetic acid sodium salt], the “experimental kidney and liver fibrosis” value [4] is listed as “reduced experimental kidney as well as liver fibrosis”.
In the case of CCCCOCCOc1ccc(-c2ccc3c(c2)/C=C(/C(=O)Nc2ccc([S@@+]([O-])Cc4cncn4CCC)cc2)CCCN3CC(C)C)cc1 [cenicriviroc], the antifibrotic activity (patients with NASH) is listed as “effective antifibrotic activity”.
For Cc1cc(F)c(C(=O)Nc2cccc(-c3nncn3C(C)C)n2)cc1-n1cnc(C2CC2)c1 [selonsertib], the “liver fibrosis (Sirius-Red-stained liver sections and hepatic hydroxyproline content)” value [5] was “reduced”, the “extent of acute liver injury (necrotic areas on histology, serum ALT)” value ([6]; GPR84 antagonists 30 mg/kg PO at 0 h, 24 h, selonsertib 15 mg/kg PO at 0, 12, 24 h) was “neither significantly modified” and the “MoMF infiltration (flow cytometry)” value [6, 8] was “but not selonsertib, significantly reduced”. The “hepatic macrophage accumulation (F4/80 immunohistochemistry)” value [6, 8] was “neither significantly modified”, the “hepatic neutrophil infiltration (flow cytometry)” value [6, 8] was “but not selonsertib, significantly reduced” and the “liver fibrosis (Sirius-Red-staining and hepatic hydroxyproline content)” value [7] was “markedly reduced”. The “neutrophils and liver lymphocytes” value [7] was “largely unaltered”, the “numbers of hepatic macrophages, particularly MoMF” value [7] was “lower numbers” and the “toxic injury according to histology or ALT levels” value [7] was “unaffected”.

— publication PMC7231190, “The Medium-Chain Fatty Acid Receptor GPR84 Mediates Myeloid Cell Infiltration Promoting Steatohepatitis and Fibrosis” (Journal of Clinical Medicine, 2020)
